ChEMBL document CHEMBL1145577, “IRAK-4 inhibitors. Part III: a series of imidazo[1,2-a]pyridines” (Bioorg Med Chem Lett, 2008)

Assays:
[1] = target: T1, Interleukin-1 receptor-associated kinase 4 (Homo sapiens, UniProt Q9NWZ3); assay: Inhibition of IRAK4
T1 sequence (Q9NWZ3 whole entry): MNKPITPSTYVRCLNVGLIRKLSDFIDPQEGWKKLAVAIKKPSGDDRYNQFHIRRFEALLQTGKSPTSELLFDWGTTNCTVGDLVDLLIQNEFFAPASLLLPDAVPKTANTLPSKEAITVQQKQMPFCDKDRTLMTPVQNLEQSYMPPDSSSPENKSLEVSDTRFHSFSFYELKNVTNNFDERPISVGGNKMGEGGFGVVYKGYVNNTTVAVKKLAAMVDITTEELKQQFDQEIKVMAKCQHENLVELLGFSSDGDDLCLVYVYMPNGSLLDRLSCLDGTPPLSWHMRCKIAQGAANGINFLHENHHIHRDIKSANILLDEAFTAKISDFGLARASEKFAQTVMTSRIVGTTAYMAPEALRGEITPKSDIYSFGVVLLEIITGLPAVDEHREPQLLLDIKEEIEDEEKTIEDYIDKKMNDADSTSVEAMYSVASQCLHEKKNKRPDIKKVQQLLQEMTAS

Cytochrome P450 3A4 = Cytochrome P450 3A4 (Homo sapiens, UniProt P08684); assay: Inhibition of CYP3A4; format: ADME; design: concentration or dose not given beside the values
Cytochrome P450 3A4, sequence (P08684 whole entry): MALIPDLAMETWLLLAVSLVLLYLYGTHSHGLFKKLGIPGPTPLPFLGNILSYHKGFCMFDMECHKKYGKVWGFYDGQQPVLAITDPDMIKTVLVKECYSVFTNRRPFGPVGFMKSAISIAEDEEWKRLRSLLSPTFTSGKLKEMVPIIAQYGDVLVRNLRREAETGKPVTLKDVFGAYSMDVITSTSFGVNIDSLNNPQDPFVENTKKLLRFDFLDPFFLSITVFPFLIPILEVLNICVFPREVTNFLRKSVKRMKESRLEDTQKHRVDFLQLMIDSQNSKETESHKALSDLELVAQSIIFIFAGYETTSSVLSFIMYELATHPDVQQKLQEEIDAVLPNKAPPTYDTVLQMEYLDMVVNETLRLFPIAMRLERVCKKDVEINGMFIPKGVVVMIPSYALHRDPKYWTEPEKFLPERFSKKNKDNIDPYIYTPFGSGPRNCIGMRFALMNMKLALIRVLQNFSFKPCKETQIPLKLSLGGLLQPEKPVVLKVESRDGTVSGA

[2] = Intrinsic clearance in human microsomes at 0.5 uM; format: ADME, Microsome
[3] = Intrinsic clearance in rat microsomes at 0.5 uM; format: ADME, Microsome
PBMC = assay: Inhibition of LPS-induced TNFalpha release in human PBMC cells; format: functional
Cytochrome P450 2D6 = Cytochrome P450 2D6 (Homo sapiens, UniProt P10635); assay: Inhibition of CYP2D6; format: ADME
Cytochrome P450 2D6, sequence (P10635 whole entry): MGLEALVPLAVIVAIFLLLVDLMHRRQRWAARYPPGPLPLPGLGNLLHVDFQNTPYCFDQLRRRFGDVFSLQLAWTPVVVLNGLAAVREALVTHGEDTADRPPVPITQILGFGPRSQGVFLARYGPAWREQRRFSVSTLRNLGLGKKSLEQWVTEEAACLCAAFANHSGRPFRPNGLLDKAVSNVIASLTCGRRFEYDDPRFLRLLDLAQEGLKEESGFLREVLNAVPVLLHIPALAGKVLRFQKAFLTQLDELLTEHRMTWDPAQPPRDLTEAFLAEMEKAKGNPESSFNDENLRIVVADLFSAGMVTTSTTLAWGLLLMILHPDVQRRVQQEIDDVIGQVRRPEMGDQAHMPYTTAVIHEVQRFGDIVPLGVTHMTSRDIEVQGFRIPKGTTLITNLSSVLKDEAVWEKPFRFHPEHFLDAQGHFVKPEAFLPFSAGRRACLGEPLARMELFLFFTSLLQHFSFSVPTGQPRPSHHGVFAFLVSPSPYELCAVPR

[4] = target: Interleukin-1 receptor-associated kinase 1 (Homo sapiens, UniProt P51617); assay: Inhibition of IRAK1
Interleukin-1 receptor-associated kinase 1, sequence (P51617 whole entry): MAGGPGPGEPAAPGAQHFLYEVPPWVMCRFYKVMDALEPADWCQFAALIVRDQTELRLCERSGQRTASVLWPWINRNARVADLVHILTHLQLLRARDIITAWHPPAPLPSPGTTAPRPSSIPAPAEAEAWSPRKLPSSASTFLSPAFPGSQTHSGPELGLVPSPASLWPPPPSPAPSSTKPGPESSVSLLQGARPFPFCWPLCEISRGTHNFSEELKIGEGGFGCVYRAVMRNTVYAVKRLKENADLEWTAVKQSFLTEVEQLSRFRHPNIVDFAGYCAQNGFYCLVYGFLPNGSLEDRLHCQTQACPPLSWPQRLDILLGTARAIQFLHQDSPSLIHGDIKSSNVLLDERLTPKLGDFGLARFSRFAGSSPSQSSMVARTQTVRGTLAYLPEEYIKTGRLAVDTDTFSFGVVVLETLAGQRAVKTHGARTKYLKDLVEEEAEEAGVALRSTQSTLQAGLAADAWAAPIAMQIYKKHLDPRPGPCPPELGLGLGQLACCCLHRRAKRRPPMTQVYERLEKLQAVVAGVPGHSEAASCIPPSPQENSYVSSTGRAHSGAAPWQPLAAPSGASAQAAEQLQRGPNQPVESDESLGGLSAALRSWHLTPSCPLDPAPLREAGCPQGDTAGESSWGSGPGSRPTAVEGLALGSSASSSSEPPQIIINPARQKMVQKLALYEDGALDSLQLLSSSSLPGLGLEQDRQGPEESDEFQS

CYP2D6 [5] = target: T2, CYP2D6 (Homo sapiens, UniProt P10635); assay: Inhibition of CYP2D6 at 10 uM; format: ADME
T2 sequence (P10635 whole entry): as the sequence (P10635 whole entry) above

CYP2D6 [6] = target: T2, CYP2D6; assay: Inhibition of CYP2D6 at 50 uM; format: ADME
[7] = target: T3, Interleukin-1 receptor-associated kinase 4 (Homo sapiens) (UniProt Q9NWZ3); assay: Inhibition of IRAK4 at 10 uM
T3 sequence (whole entry): T1 sequence (Q9NWZ3 whole entry)

With c1cc(-c2cnc3ccccn23)nc(N2CCCNCC2)c1 the IC50 [1] was 487 nM.

With Cn1cnc(CNc2cccc(-c3cnc4ccccn34)n2)c1 the IC50 [1] was 497 nM.

Clc1ccc2ncc(-c3cccc(NC4CCNC4)n3)n2c1 (racemic) gave an Inhibition (Cytochrome P450 3A4) of 12%, a microsomal CLint at 0.5 µM [2] of 19.2 µL/min/mg and a microsomal CLint at 0.5 µM [3] of 49.3 µL/min/mg. It also gave an Activity (PBMC) of 16 nM, an IC50 [1] of 1 nM and an Inhibition (Cytochrome P450 2D6) of 15%. The IC50 [4] was 23000 nM.

c1cc(NC2CCNCC2)nc(-c2cnc3ccc(-c4ccc[nH]4)cn23)c1 gave an IC50 [1] of 63 nM.

CN1[C@@H]2CC[C@H]1CC(Nc1cccc(-c3cnc4ccccn34)n1)C2 (stereo partly drawn) gave an IC50 [1] of 914 nM.

Work on N#Cc1ccccc1Nc1cccc(-c2cnc3ccccn23)n1 yielded an IC50 [1] of 433 nM.

For Clc1ccc2ncn(-c3cccc(NC4CCNCC4)n3)c2c1, the IC50 [1] was 3 nM.

Work on COc1ccc2c(c1)ncn2-c1cccc(NC2CCNCC2)n1 yielded an IC50 [1] of 208 nM.

Molecule c1cc(NC2C[C@H]3CC[C@@H](C2)N3)nc(-c2cnc3ccccn23)c1 (stereo partly drawn) has an IC50 [1] of 225 nM.

Clc1cc2ncn(-c3cccc(NC4CCNCC4)n3)c2cc1Cl gave an IC50 [1] of 166 nM.

In the case of NCCCNc1cccc(-c2cnc3ccccn23)n1, the IC50 [1] is reported as 1300 nM.

In the case of c1cc(NCC2CCCN2)nc(-c2cnc3ccccn23)c1 (racemic), the IC50 [1] is reported as 313 nM.

In the case of c1cc(NCC2CCNCC2)nc(-c2cnc3ccccn23)c1, the IC50 [1] is reported as 3030 nM.

In the case of CN(C)C(=O)c1ccc2ncc(-c3cccc(NC4CCNCC4)n3)n2c1, the IC50 [1] is reported as 49 nM.

With CN(C)CCCNc1cccc(-c2cnc3ccccn23)n1 the IC50 [1] was 8100 nM.

COc1ccc2ncc(-c3cccc(NC4CNC4)n3)n2c1 showed an IC50 [1] of 7 nM.

Work on Cc1ccc2ncn(-c3cccc(NC4CCNCC4)n3)c2c1 yielded an IC50 [1] of 10 nM.

c1cc(NC2CNC2)nc(-c2cnc3ccccn23)c1 gave an IC50 [1] of 39 nM.

Work on c1cc(N[C@H]2CCCNC2)nc(-c2cnc3ccccn23)c1 yielded an IC50 [1] of 19 nM.

Work on Cn1nccc1Nc1cccc(-c2cnc3ccccn23)n1 yielded an IC50 [1] of 1130 nM.

In the case of N#Cc1ccc2ncc(-c3cccc(N[C@@H]4CCCNC4)n3)n2c1, the IC50 [1] is reported as 95 nM.

Work on Cc1ccc2c(c1)ncn2-c1cccc(NC2CCNCC2)n1 yielded an IC50 [1] of 1080 nM.

With N#Cc1ccc2ncc(-c3cccc(NC4CCNCC4)n3)n2c1 the Inhibition (Cytochrome P450 3A4) was 22%, the microsomal CLint at 0.5 µM [2] was 8.3 µL/min/mg and the microsomal CLint at 0.5 µM [3] was 39.9 µL/min/mg. The Activity (PBMC) was 200 nM, the IC50 [1] was 4 nM and the Inhibition (Cytochrome P450 2D6) was 42%. It also gave an IC50 [4] of 96000 nM.

Cn1cc(-c2ccc3ncc(-c4cccc(NC5CCNCC5)n4)n3c2)cn1 gave an IC50 [1] of 7 nM.

For Clc1ccc2c(c1)ncn2-c1cccc(NC2CCNCC2)n1, the IC50 [1] was 112 nM.

Molecule NC1CCN(c2cccc(-c3cnc4ccccn34)n2)CC1 has an IC50 [1] of 1880 nM.

With NC1CCCN(c2cccc(-c3cnc4ccccn34)n2)C1 (racemic) the IC50 [1] was 535 nM.

With COc1ccc(-c2ccc3ncc(-c4cccc(NC5CCNCC5)n4)n3c2)cn1 the IC50 [1] was 8 nM.

In the case of NC(=O)c1ccc2ncc(-c3cccc(NC4CCNCC4)n3)n2c1, the IC50 [1] is reported as 5 nM.

In the case of c1cc(NC2CCNC2)nc(-c2cnc3ccccn23)c1 (racemic), the IC50 [1] is reported as 545 nM.

With Clc1ccc2ncc(-c3cccc(NC4CNC4)n3)n2c1 the Inhibition (Cytochrome P450 3A4) was 11%, the inhibition at 10 µM (CYP2D6 [5]) was 21% and the microsomal CLint at 0.5 µM [2] was 13 µL/min/mg. It also gave an Activity (PBMC) of 54 nM, an IC50 [1] of 6 nM and an IC50 [4] of 195000 nM.

Work on c1ccc(Nc2cccc(-c3cnc4ccccn34)n2)cc1 yielded an IC50 [1] of 1160 nM.

In the case of COc1cc2ncn(-c3cccc(NC4CCNCC4)n3)c2cc1OC, the IC50 [1] is reported as 181 nM.

c1cc(NC2CCNCC2)nc(-c2cnc3ccc(-c4cc[nH]n4)cn23)c1 showed an IC50 [1] of 2 nM.

In the case of COc1ccc2ncn(-c3cccc(NC4CCNCC4)n3)c2c1, the IC50 [1] is reported as 15 nM.

Molecule c1cc(-c2cnc3ccccn23)nc(N2C[C@H]3C[C@@H]2CN3)c1 has an IC50 [1] of 126 nM.

COc1ccc2ncc(-c3cccc(NC4CCNCC4)n3)n2c1 showed an Inhibition (Cytochrome P450 3A4) of 31%, an inhibition at 50 µM (CYP2D6 [6]) of 41% and a microsomal CLint at 0.5 µM [2] of 19.5 µL/min/mg. For the same molecule, the microsomal CLint at 0.5 µM [3] was 5.3 µL/min/mg, the Activity (PBMC) was 220 nM and the IC50 [1] was 6 nM. It also gave an IC50 [4] of 293000 nM.

Clc1ccc2ncc(-c3cccc(NC4CCCNC4)n3)n2c1 (racemic) showed an Inhibition (Cytochrome P450 3A4) of 8.6%, a microsomal CLint at 0.5 µM [2] of 29.5 µL/min/mg and a microsomal CLint at 0.5 µM [3] of 78.1 µL/min/mg. The Activity (PBMC) was 65 nM, the Inhibition (Cytochrome P450 2D6) was 1.8% and the IC50 [4] was 175000 nM.

Molecule N#Cc1ccc(Nc2cccc(-c3cnc4ccccn34)n2)cc1 has an inhibition [7] of 12%.

Work on O=C(c1ccc2ncc(-c3cccc(NC4CCNCC4)n3)n2c1)N1CCOCC1 yielded an IC50 [1] of 263 nM.
